Measured values from PMC10397248, “A novel N^6-Deoxyadenine methyltransferase METL-9 modulates C. elegans immunity via dichotomous mechanisms” (Cell Research, 2023).
Positions count from the first letter of the chain named.

Columns and labels:
[1] = biological target: mouse Mettl9 (recombinant GST-Mettl9) (Mus musculus, UniProt Q9EPL4); assay: in vitro DNA 6mA methylation, LC-MS/MS; format: biochemical; conditions: biotin-ssDNA or bubbled DNA with GAGG motif 2 uM, SAM or d3-SAM 0.1 mM (which one only in supplement), pH 7.5, 2.5 mM MgCl2, 25 °C; methyl donor
[2] = biological target: T1, METL-9 (recombinant GST-METL-9) (Caenorhabditis elegans, UniProt Q22123, N172K/D274G); assay: in vitro DNA 6mA methylation, LC-MS/MS; format: biochemical; conditions: biotin-ssDNA oligo 2 uM, d3-SAM 0.1 mM, HEPES pH 7.5, 2.5 mM MgCl2, 80 mM KCl, 20 °C; methyl donor; labelled compound
T1 sequence (Q22123 1-311 N172K/D274G): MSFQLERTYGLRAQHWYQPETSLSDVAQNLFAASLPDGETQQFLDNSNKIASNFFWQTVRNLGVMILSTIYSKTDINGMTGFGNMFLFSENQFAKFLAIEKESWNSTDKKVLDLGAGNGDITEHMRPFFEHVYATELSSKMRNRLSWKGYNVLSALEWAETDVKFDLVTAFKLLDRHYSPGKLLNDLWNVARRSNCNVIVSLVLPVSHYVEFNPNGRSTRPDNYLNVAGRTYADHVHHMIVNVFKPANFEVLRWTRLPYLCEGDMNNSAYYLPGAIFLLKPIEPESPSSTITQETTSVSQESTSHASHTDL

[3] = substrate: C[S+](CC[C@H](N)C(=O)O)C[C@H]1O[C@@H](n2cnc3c(N)ncnc32)[C@H](O)[C@@H]1O; assay: purified protein; conditions: ssDNA oligo 5 uM, varied d3-SAM, HEPES pH 7.5, 2.5 mM MgCl2, 80 mM KCl, 20 °C, methyl donor, labelled compound

Chain of mouse Mettl9 (recombinant GST-Mettl9) (Q9EPL4 whole entry): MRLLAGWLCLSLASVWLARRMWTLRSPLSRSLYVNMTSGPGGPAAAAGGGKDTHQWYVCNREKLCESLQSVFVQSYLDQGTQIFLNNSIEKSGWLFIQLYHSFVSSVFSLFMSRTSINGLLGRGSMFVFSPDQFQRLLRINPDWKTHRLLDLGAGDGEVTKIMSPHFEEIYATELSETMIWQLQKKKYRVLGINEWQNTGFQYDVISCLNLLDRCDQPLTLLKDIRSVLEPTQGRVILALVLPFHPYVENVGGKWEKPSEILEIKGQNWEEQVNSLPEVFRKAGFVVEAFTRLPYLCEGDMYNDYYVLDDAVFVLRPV

For C[S+](CC[C@H](N)C(=O)O)C[C@H]1O[C@@H](n2cnc3c(N)ncnc32)[C@H](O)[C@@H]1O (stereo partly shown) [SAM], the “in vitro DNA 6mA methylation, LC-MS/MS” value [1] was “mouse Mettl9 protein showed 6mA methyltransferase activity towards ssDNA and bubbled DNA”.

For C[S+](CC[C@H](N)C(=O)O)C[C@H]1O[C@@H](n2cnc3c(N)ncnc32)[C@H](O)[C@@H]1O (stereo partly shown) [d3-SAM], the “in vitro DNA 6mA methylation, LC-MS/MS” value [2] was “double mutant (M8 + M10, metl-9^mut) almost completely abolished the 6mA methyltransferase activity of METL-9”.

B1: METL-9 (recombinant GST-METL-9) (Caenorhabditis elegans) (protein)
chain: T1 sequence (Q22123 1-311 N172K/D274G) with K172N, G274D
B1 gave a Km [3] of 37.69 ± 3.75 µM and a kcat [3] of 0.00131 ± 5.83e-05 s⁻¹.
